# Tests used:
# human mGluR5a receptor [1] = target: T1, human mGluR5a receptor (Homo sapiens, UniProt P41594); assay: Functional Assay 3: as Functional Assay 2 but clone H12H; type: cell-based; settings: for EC50: glutamate EC20; for Emax: maximum average response at a single concentration
# T1 construct: host or cells: HEK293A (monoclones H10H and H12H)
# Method: HEK cells transfected with the human mGluR5a receptor (H10H cell line) were plated at 15.000 cells/well in clear-bottomed poly-D-lysine-coated assay plates (BD Falcon) in glutamate-glutamine-free growth medium and incubated overnight at 37° C. and 5% CO2. The following day, the growth medium was removed and the cells were washed with assay buffer containing 1× Hank's balanced salt solution (Invitrogen, Carlsbad, Calif.), 20 mM HEPES, 2.5 mM probenecid, pH 7.4 and left with 20 μL of this reagent. Following this step, the cells were loaded with calcium indicator dye, fluo-4 AM, to a final concentration of 2 μM and incubated for 40-45 min at 37° C. The dye solution was removed and replaced with assay buffer. Cell plates were held for 10-15 min at room temperature and were then loaded into the Functional Drug Screening System 6000 (FDSS 6000, Hamamatsu, Japan).
# After establishment of a fluorescence baseline for about 3 seconds, the compounds of the present invention were added to the cells, and the response in cells was measured. 2.3 minutes later an EC20 concentration of the mGluR5 receptor agonist glutamate was added to the cells, and the response of the cells was measured for about 1.7 minutes. All test compounds were dissolved and diluted to a concentration of 10 mM in 100% DMSO and then serially diluted into assay buffer for a 2× stock solution in 0.6% DMSO; stock compounds were then added to the assay for a final DMSO concentration of 0.3% after the first addition to the assay well. Calcium fluorescence measures were recorded as fold over basal fluorescence; raw data was then normalized to the maximal response to glutamate. Potentiation of the agonist response of the mGluR5 receptor in the present invention was observed as an increase in response to submaximal concentrations of glutamate in the presence of compound compared to the response to glutamate in the absence of compound.
# The concentration-response curves of compounds of the present invention, obtained in the presence of EC20 of mGluR5 receptor agonist glutamate to determine positive allosteric modulation, were generated using Microsoft Excel with IDBS XLfit add-ins. The raw data file containing all time points was used as the data source in the analysis template. This was saved by the FDSS as a tab-delimitted text file. Data were normalized using a static ratio function (F/F0) for each measurement of the total 350 values per well divided by each well's initial value. Data was then reduced as to peak amplitudes (Max−Initial Min) using a time range that starts approximately 1 second after the glutamate EC20 addition and continues for approximately 40 seconds. This is sufficient time to capture the peak amplitude of the cellular calcium response. Individual amplitudes were expressed as % effect by multiplying each amplitude by 100 and then dividing the product by the mean of the amplitudes derived from the glutamate ECMax-treated wells. pEC50 values for test compounds were generated by fitting the normalized values versus the log of the test compound concentration (in mol/L) using a 4 parameter logistic equation where none of the parameters were fixed. Each of the three values collected at each concentration of test compound were weighted evenly. Individual values falling outside the 95% prediction limits of the curve fit were automatically excluded from the fit. […] These two methods are in good agreement for curves with a clear plateau at the high concentration range. […] For consistency purposes across the range of potencies observed, all Emax values reported in this application are calculated using the maximum average response at a single concentration.
# Functional Assay 3 was performed under the same conditions as Functional Assay 2, except that clone H12H was used instead of clone H10H.
# The clones that were used in the primary functional assay gave undiscernable differences in this assay.
# [2] = tested on: amphetamine-induced hyperlocomotion; assay: Rat hyperlocomotion assay (reversal of amphetamine-induced hyperlocomotion); type: in vivo; settings: male Sprague-Dawley rats; 3.0, 10.0, 30.0, 56.6 mg/kg p.o.; amphetamine sulphate 1.0 mg/kg s.c.; FIG. 1
# Method: Locomotor activity was assessed as mean distance traveled (cm) in standard 16×16 photocell testing chambers measuring 43.2 cm (Length)×43.2 cm (Width)×30.5 cm (Height) (Med Associates, St. Albans, Vt.). Animals were habituated to individual activity chambers for at least 30 min prior to drug administration. Following administration of drug or vehicle, activity was recorded for a 90 minute time period. Data was expressed as the mean (±SEM) distance traveled recorded in 5 min intervals over the test period. The data was analyzed using repeated measures analysis of variance (ANOVA) followed by post-hoc testing using Dunnett's test, when appropriate. A difference was considered significant when p≦05. […]
# The animals were habituated in Smart Open Field locomotor activity test chambers (Hamilton-Kinder, San Diego, Calif.) with 16×16 photobeams to automatically record locomotor activity for 30 min and then dosed with vehicle or test compound. […] At 60 min, all rats were injected subcutaneously with 1 mg/kg amphetamine or vehicle and then monitored for an additional 60 min. Animals are monitored for a total of 120 minutes. Data are expressed as changes in ambulation defined as total number of beam breaks per 5 min periods.
# The data for the dose-response studies were analyzed by a between-group analysis of variance. […]
# human mGluR5a receptor [3] = target: T1, human mGluR5a receptor; assay: Functional Assay 2: Ca2+ mobilization, HEK cells with human mGluR5a receptor (H10H cell line); type: cell-based; settings: HEK293; H10H cell line; maximum average response at a single concentration, relative to glutamate ECMax
# human mGluR5 receptor = target: T2, human mGluR5 receptor (Homo sapiens, UniProt P41594); assay: Functional Assay 1: intracellular Ca2+ mobilization, positive allosteric modulation of glutamate EC20 response; type: cell-based; settings: maximum % effect relative to glutamate ECMax
# T2 construct: expressed in transfected cells; host or cells: HEK-293
# T2 sequence (P41594 21-1180 isoform P41594-2 limits assumed): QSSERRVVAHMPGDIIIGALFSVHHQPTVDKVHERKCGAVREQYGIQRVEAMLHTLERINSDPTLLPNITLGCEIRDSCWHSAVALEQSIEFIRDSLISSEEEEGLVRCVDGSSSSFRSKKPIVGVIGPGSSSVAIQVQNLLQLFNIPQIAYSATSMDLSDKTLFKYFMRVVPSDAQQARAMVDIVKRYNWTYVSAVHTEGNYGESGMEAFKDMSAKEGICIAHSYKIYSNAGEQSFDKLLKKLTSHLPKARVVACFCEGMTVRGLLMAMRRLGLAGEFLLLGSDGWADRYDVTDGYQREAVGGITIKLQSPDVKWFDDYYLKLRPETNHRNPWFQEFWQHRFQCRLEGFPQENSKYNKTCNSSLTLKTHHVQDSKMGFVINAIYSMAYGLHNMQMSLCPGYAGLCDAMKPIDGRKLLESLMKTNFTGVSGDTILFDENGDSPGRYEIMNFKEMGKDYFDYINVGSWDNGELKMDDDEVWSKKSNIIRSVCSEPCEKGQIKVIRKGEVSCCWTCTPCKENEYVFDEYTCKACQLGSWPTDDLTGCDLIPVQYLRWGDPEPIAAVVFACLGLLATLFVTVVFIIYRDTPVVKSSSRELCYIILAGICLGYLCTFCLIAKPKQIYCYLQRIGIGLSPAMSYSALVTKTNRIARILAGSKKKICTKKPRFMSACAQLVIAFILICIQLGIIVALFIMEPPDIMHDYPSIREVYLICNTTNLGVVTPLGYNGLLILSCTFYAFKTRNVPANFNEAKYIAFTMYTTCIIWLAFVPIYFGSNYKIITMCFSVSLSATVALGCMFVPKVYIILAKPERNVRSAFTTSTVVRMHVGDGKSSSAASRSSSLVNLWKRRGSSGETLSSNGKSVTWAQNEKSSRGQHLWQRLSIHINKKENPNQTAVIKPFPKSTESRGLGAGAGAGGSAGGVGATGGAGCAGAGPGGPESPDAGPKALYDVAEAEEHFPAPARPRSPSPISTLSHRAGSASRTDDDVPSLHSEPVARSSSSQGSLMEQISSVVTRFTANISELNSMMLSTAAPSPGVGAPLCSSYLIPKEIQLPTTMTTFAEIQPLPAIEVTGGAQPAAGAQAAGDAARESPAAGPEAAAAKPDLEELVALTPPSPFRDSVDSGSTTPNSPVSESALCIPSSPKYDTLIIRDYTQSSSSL
# Method: HEK-293 cells were stable transfected with human mGluR5a cDNA in expression vector pcDNA4/TO. For Assay 1, these human mGluR5 receptor over-expressing HEK-293 cells were grown at a density of 40,000 cells/well in PDL-coated 384-well plates. The following day, cells were preloaded with the calcium-sensing dye Fluo-4 AM and various concentrations of test compound were added in the absence of exogenous glutamate to test for direct agonist activity. Shortly (2.5 min) thereafter, an EC20 equivalent of glutamate (˜0.2 μM) was added. The fluorescence signal was monitored using a Hamamatsu Functional Drug Screening System (FDSS) fluorescence plate reader following the addition of compound alone (direct agonist response) and then the further addition of an EC20 of glutamate (positive allosteric modulation response). The pEC50 was defined as the negative log of the test compound concentration which produced an increase in the glutamate EC20-mediated response that was 50% of maximum. Individual amplitudes were expressed as % effect by multiplying each amplitude by 100 and then dividing the product by the mean of the amplitudes derived from the glutamate ECMax-treated wells. Emax values reported in this application are defined as the maximum % effect obtained in a concentration-response curve.
# T1 sequence (P41594 21-1180 isoform P41594-2 limits assumed): as above
SMILES,EC50 (human mGluR5a receptor [1]),Emax (human mGluR5a receptor [1]),melting point,reversal of amphetamine-induced hyperlocomotion [2],Emax (human mGluR5a receptor [3]),Emax (human mGluR5 receptor)
"C[C@@H](N1CCc2nc(COc3cccc(F)c3)sc2C1=O)C(C)(C)C [Compound 7, 2-[(3-fluorophenoxy)methyl]-6,7-dihydro-5-[(1R)-1,2,2-trimethylpropyl]-thiazolo[5,4-c]pyridin-4(5H)-one]",1410 nM,57%,87.2 to 87.8 °C,–,–,–
"CN1CCc2nc(COc3ccccc3)sc2C1=O [Compound 8, 6,7-dihydro-5-methyl-2-(phenoxymethyl)-thiazolo[5,4-c]pyridin-4(5H)-one]",–,–,–,dose-dependent reversal effects,77%,88%
"O=C1c2sc(OCc3cccc(F)c3)nc2CCN1c1cccc(C(F)(F)F)c1 [Compound 30, 2-[(3-fluorophenyl)methoxy]-6,7-dihydro-5-[3-(trifluoromethyl)phenyl]-thiazolo[5,4-c]pyridin-4(5H)-one]",933 nM,58%,108.2 to 108.9 °C,–,–,–
"C[C@@H](N1CCc2nc(OCc3cccc(F)c3)sc2C1=O)C(C)(C)C [Compound 77, 2-[(3-fluorophenyl)methoxy]-6,7-dihydro-5-[(1R)-1,2,2-trimethylpropyl]-thiazolo[5,4-c]pyridin-4(5H)-one]",> 30200 nM,21%,–,–,–,–
